Legend:
Format in all cases: in vivo
[1] = test system: Chilo suppressalis (Striped Rice Stemborer); assay: Example B3: Chilo suppressalis (striped rice stemborer), artificial diet, L2 larvae; details: 144 h, application rate of 200 ppm, 6 days after infestation, L2 larvae, read-out: control in at least one of the three categories (mortality, anti-feedant effect, or growth inhibition)
In short: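 Scoring covers mortality, anti-feedant effect and growth inhibition at 6 days post-infestation, relative to untreated diet, with activity defined as at least one category above untreated. Test solutions were aqueous, made from 10'000 ppm DMSO stocks, and applied to artificial diet before drying and infestation with L2 larvae.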

[2] = test system: Spodoptera littoralis (Egyptian Cotton Leaf Worm); assay: Example B7: Spodoptera littoralis (Egyptian cotton leaf worm), cotton leaf discs sprayed, L1 larvae; details: foliar, 72 h, application rate of 200 ppm, 3 days after infestation, L1 larvae, read-out: control in at least one of the three categories (mortality, anti-feedant effect, or growth inhibition)
In short: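 Five L1 larvae per sprayed, dried cotton leaf disc on agar. Activity is counted when mortality, anti-feedant effect or growth inhibition exceeds the untreated sample at day 3.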

[3] = test system: Plutella xylostella (Diamond Back Moth); assay: Example B4: Plutella xylostella (diamond back moth), artificial diet, eggs, 24-well; details: 192 h, application rate of 200 ppm, 8 days after infestation, eggs, read-out: control in at least one of the two categories (mortality or growth inhibition)
Protocol: 24-well microtiter plates with artificial diet were treated with aqueous test solutions prepared from 10′000 ppm DMSO stock solutions by pipetting. After drying, Plutella eggs were pipetted through a plastic stencil onto a gel blotting paper and the plate was closed with it. The samples were assessed for mortality and growth inhibition in comparison to untreated samples 8 days after infestation.

[4] = test system: Myzus persicae (Green Peach Aphid); assay: Example B5: Myzus persicae (green peach aphid) feeding/contact activity, sunflower leaf discs; details: foliar, 144 h, application rate of 200 ppm, 6 days after infestation
Protocol: Sunflower leaf discs were placed onto agar in a 24-well microtiter plate and sprayed with aqueous test solutions prepared from 10′000 ppm DMSO stock solutions. After drying, the leaf discs were infested with an aphid population of mixed ages. The samples were assessed for mortality 6 days after infestation.

[5] = test system: Myzus persicae (Green Peach Aphid); assay: Example B6: Myzus persicae (green peach aphid) intrinsic activity, sucrose solution; details: 120 h, test rate of 12 ppm, 5 days after infestation, intrinsic activity, read-out: mortality
In short: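 Compounds from 10′000 ppm DMSO stocks were mixed into sucrose solution in 24-well plates sealed with Parafilm. Aphid-infested pea seedlings were set on the membrane and the plate inverted so aphids fed through it. Mortality scored 5 days after infestation.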

[6] = test system: Diabrotica Balteata (Corn Root Worm); assay: Example B1: Diabrotica balteata (corn root worm), maize sprouts sprayed, L2 larvae; details: 96 h, application rate of 200 ppm, 4 days after infestation, L2 larvae, read-out: control in at least one of the two categories (mortality or growth inhibition)
In short: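 Read-out is mortality plus growth inhibition relative to untreated controls, assessed 4 days after infestation. Sprouts resting on agar are sprayed with aqueous solutions derived from 10′000 ppm DMSO stocks and left to dry before L2 larvae (6 to 10 per well) are added.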

[7] = test system: Euschistus heros (Neotropical Brown Stink Bug); assay: Example B2: Euschistus heros (neotropical brown stink bug), soybean leaves sprayed, N2 nymphs; details: 120 h, application rate of 200 ppm, 5 days after infestation, N2 nymphs, read-out: control in at least one of the two categories (mortality or growth inhibition)
Protocol: Soybean leaves on agar in 24-well microtiter plates were sprayed with aqueous test solutions prepared from 10′000 ppm DMSO stock solutions. After drying the leaves were infested with N2 nymphs. The samples were assessed for mortality and growth inhibition in comparison to untreated samples 5 days after infestation.

CC(Nc1ncnc2c(OC(F)(F)F)cc(Br)cc12)c1ncnn1-c1ncccn1 (stereo not shown) [P.248, 6-bromo-N-[1-(2-pyrimidin-2-yl-1,2,4-triazol-3-yl)ethyl]-8-(trifluoromethoxy)quina-zolin-4-amine]
≥ 80%: percent control (mortality, anti-feedant effect or growth inhibition) at 200 ppm [1] | percent control (mortality, anti-feedant effect or growth inhibition) at 200 ppm [2] | percent control (mortality or growth inhibition) at 200 ppm [3] | mortality at 200 ppm [4] | mortality at 12 ppm [5] | percent control (mortality or growth inhibition) at 200 ppm [6] | percent control (mortality or growth inhibition) at 200 ppm [7]

C[C@@H](c1ncnn1-c1ccc(C#N)cn1)N(C)c1ncnc2c(C(F)(F)F)cc(Cl)cc12 [P.21, 6-[5-[(1S)-1-[[6-chloro-8-(trifluoromethyl)quinazolin-4-yl]-methyl-amino]ethyl]-1,2,4-triazol-1-yl]pyridine-3-carbonitrile]
≥ 80%: percent control (mortality, anti-feedant effect or growth inhibition) at 200 ppm [1] | percent control (mortality, anti-feedant effect or growth inhibition) at 200 ppm [2] | percent control (mortality or growth inhibition) at 200 ppm [3] | mortality at 200 ppm [4] | mortality at 12 ppm [5] | percent control (mortality or growth inhibition) at 200 ppm [6] | percent control (mortality or growth inhibition) at 200 ppm [7]

CC(c1ncnn1-c1ccc(C#N)cn1)N(C)c1ncnc2c(C(F)(F)F)cc(OC(F)(F)F)cc12 (stereo not shown) [P.221, 6-[5-[1-[methyl-[6-(trifluoromethoxy)-8-(trifluoromethyl)quinazolin-4-yl]amino]ethyl]-1,2,4-triazol-1-yl]pyridine-3-carbonitrile]
≥ 80%: percent control (mortality, anti-feedant effect or growth inhibition) at 200 ppm [1] | percent control (mortality, anti-feedant effect or growth inhibition) at 200 ppm [2] | percent control (mortality or growth inhibition) at 200 ppm [3] | mortality at 200 ppm [4] | mortality at 12 ppm [5] | percent control (mortality or growth inhibition) at 200 ppm [6] | percent control (mortality or growth inhibition) at 200 ppm [7]

C[C@H](Nc1ncnc2c(C(F)(F)F)cc(C(F)(F)F)cc12)c1ncnn1-c1ncccn1 [P.1, N-[(1S)-1-(2-pyrimidin-2-yl-1,2,4-triazol-3-yl)ethyl]-6,8-bis(trifluoromethyl)quina-zolin-4-amine]
≥ 80%: percent control (mortality, anti-feedant effect or growth inhibition) at 200 ppm [1] | percent control (mortality, anti-feedant effect or growth inhibition) at 200 ppm [2] | percent control (mortality or growth inhibition) at 200 ppm [3] | mortality at 200 ppm [4] | mortality at 12 ppm [5] | percent control (mortality or growth inhibition) at 200 ppm [6] | percent control (mortality or growth inhibition) at 200 ppm [7]

CCN(c1ncnc2c(C(F)(F)F)cc(Cl)cc12)[C@@H](C)c1ncnn1-c1ccc(C#N)cn1 [P.128, 6-[5-[(1S)-1-[[6-chloro-8-(trifluoromethyl)quinazolin-4-yl]-ethyl-amino]ethyl]-1,2,4-triazol-1-yl]pyridine-3-carbonitrile]
≥ 80%: percent control (mortality, anti-feedant effect or growth inhibition) at 200 ppm [1] | percent control (mortality, anti-feedant effect or growth inhibition) at 200 ppm [2] | percent control (mortality or growth inhibition) at 200 ppm [3] | mortality at 200 ppm [4] | mortality at 12 ppm [5] | percent control (mortality or growth inhibition) at 200 ppm [6] | percent control (mortality or growth inhibition) at 200 ppm [7]

CC(c1ncnn1-c1ncccn1)N(C)c1ncnc2c(Br)cc(Cl)cc12 (stereo not shown) [P.172, 8-bromo-6-chloro-N-methyl-N-[1-(2-pyrimidin-2-yl-1,2,4-triazol-3-yl)ethyl]quinazolin-4-amine]
≥ 80%: percent control (mortality, anti-feedant effect or growth inhibition) at 200 ppm [1] | percent control (mortality, anti-feedant effect or growth inhibition) at 200 ppm [2] | percent control (mortality or growth inhibition) at 200 ppm [3] | mortality at 200 ppm [4] | mortality at 12 ppm [5] | percent control (mortality or growth inhibition) at 200 ppm [6] | percent control (mortality or growth inhibition) at 200 ppm [7]

CC(c1ncnn1-c1ncccn1)N(C)c1ncnc2c(OC(F)F)cc(Br)cc12 (stereo not shown) [P.245, 6-bromo-8-(difluoromethoxy)-N-methyl-N-[1-(2-pyrimidin-2-yl-1,2,4-triazol-3-yl)ethyl]quinazolin-4-amine]
≥ 80%: percent control (mortality, anti-feedant effect or growth inhibition) at 200 ppm [1] | percent control (mortality, anti-feedant effect or growth inhibition) at 200 ppm [2] | percent control (mortality or growth inhibition) at 200 ppm [3] | mortality at 200 ppm [4] | mortality at 12 ppm [5] | percent control (mortality or growth inhibition) at 200 ppm [6] | percent control (mortality or growth inhibition) at 200 ppm [7]

C[C@@H](c1ncnn1-c1ncccn1)N(C)c1ncnc2c(I)cc(C(F)(F)F)cc12 [P.219, 8-iodo-N-methyl-N-[(1S)-1-(2-pyrimidin-2-yl-1,2,4-triazol-3-yl)ethyl]-6-(trifluoromethyl)quinazolin-4-amine]
≥ 80%: percent control (mortality, anti-feedant effect or growth inhibition) at 200 ppm [1] | percent control (mortality, anti-feedant effect or growth inhibition) at 200 ppm [2] | percent control (mortality or growth inhibition) at 200 ppm [3] | mortality at 200 ppm [4] | mortality at 12 ppm [5] | percent control (mortality or growth inhibition) at 200 ppm [6] | percent control (mortality or growth inhibition) at 200 ppm [7]

C[C@@H](c1ncnn1-c1ccc(C#N)cn1)N(C)c1ncnc2c(C(F)(F)F)cc(C(F)(F)F)cc12 [P.54, 6-[5-[(1S)-1-[[6,8-bis(trifluoromethyl)quina-zolin-4-yl]-methyl-amino]ethyl]-1,2,4-triazol-1-yl]pyridine-3-carbonitrile]
≥ 80%: percent control (mortality, anti-feedant effect or growth inhibition) at 200 ppm [1] | percent control (mortality, anti-feedant effect or growth inhibition) at 200 ppm [2] | percent control (mortality or growth inhibition) at 200 ppm [3] | mortality at 200 ppm [4] | mortality at 12 ppm [5] | percent control (mortality or growth inhibition) at 200 ppm [6] | percent control (mortality or growth inhibition) at 200 ppm [7]

C[C@@H](c1ncnn1-c1ncccn1)N(C)c1ncnc2c(C(F)(F)F)cc(Cl)cc12 [P.23, 6-chloro-N-methyl-N-[(1S)-1-(2-pyrimidin-2-yl-1,2,4-triazol-3-yl)ethyl]-8-(trifluoromethyl)quinazolin-4-amine]
≥ 80%: percent control (mortality, anti-feedant effect or growth inhibition) at 200 ppm [1] | percent control (mortality, anti-feedant effect or growth inhibition) at 200 ppm [2] | percent control (mortality or growth inhibition) at 200 ppm [3] | mortality at 200 ppm [4] | mortality at 12 ppm [5] | percent control (mortality or growth inhibition) at 200 ppm [6] | percent control (mortality or growth inhibition) at 200 ppm [7]

CC(c1ncnn1-c1ncccn1)N(C)c1ncnc2c(C(F)(F)F)cc(C(F)(F)F)cc12 (stereo not shown) [P.27, N-methyl-N-[1-(2-pyrimidin-2-yl-1,2,4-triazol-3-yl)ethyl]-6,8-bis(trifluoromethyl)quinazolin-4-amine]
≥ 80%: percent control (mortality, anti-feedant effect or growth inhibition) at 200 ppm [1] | percent control (mortality, anti-feedant effect or growth inhibition) at 200 ppm [2] | percent control (mortality or growth inhibition) at 200 ppm [3] | mortality at 200 ppm [4] | mortality at 12 ppm [5] | percent control (mortality or growth inhibition) at 200 ppm [6] | percent control (mortality or growth inhibition) at 200 ppm [7]

C[C@@H](c1ncnn1-c1ccc(C#N)cn1)N(C)c1ncnc2c(I)cc(C(F)(F)F)cc12 [P.228, 6-[5-[(1S)-1-[[8-iodo-6-(trifluoromethyl)quinazolin-4-yl]-methyl-amino]ethyl]-1,2,4-triazol-1-yl]pyridine-3-carbonitrile]
≥ 80%: percent control (mortality, anti-feedant effect or growth inhibition) at 200 ppm [1] | percent control (mortality, anti-feedant effect or growth inhibition) at 200 ppm [2] | percent control (mortality or growth inhibition) at 200 ppm [3] | mortality at 200 ppm [4] | mortality at 12 ppm [5] | percent control (mortality or growth inhibition) at 200 ppm [6] | percent control (mortality or growth inhibition) at 200 ppm [7]

C[C@@H](c1ncnn1-c1ccc(C#N)cn1)N(CC1CC1)c1ncnc2c(C(F)(F)F)cc(Cl)cc12 [P.264, 6-[5-[(1S)-1-[[6-chloro-8-(trifluoromethyl)quinazolin-4-yl]-(cyclopropylmethyl)amino]ethyl]-1,2,4-triazol-1-yl]pyridine-3-carbonitrile]
≥ 80%: percent control (mortality, anti-feedant effect or growth inhibition) at 200 ppm [1] | percent control (mortality, anti-feedant effect or growth inhibition) at 200 ppm [2] | percent control (mortality or growth inhibition) at 200 ppm [3] | mortality at 200 ppm [4] | mortality at 12 ppm [5] | percent control (mortality or growth inhibition) at 200 ppm [6] | percent control (mortality or growth inhibition) at 200 ppm [7]

Source: patent US20230002359A1, “PESTICIDALLY ACTIVE FUSED BICYCLIC HETEROAROMATIC COMPOUNDS” (priority 2019, published 2023)
